Experimental data reported in US7109341B2, “Therapeutic amides” (Wayne State University, priority 2002, dated 2006).
“And” between values parts separate entries of the source, which are not always exact repeats. Identical values can stand only once.

Key:
[1] = system: Pancreatic Ductal Adenocarcinoma 03; test: Evaluation against early stage Pancreatic Ductal Adenocarcinoma 03 in female BDF1 mice (Table 4); assay type: in vivo, mouse; settings: IV
Text: The higher dose requirement for compound 14e may be a disadvantage over compound 11b (Cage 14).

[2] = system: Pancreatic Adenocarcinoma 03; test: Evaluation against early stage Pancreatic Adenocarcinoma 03 in BDF1 male mice (Table 1); assay type: in vivo, mouse; settings: Cage 8; IV; QD 3–5; total 180 mg/kg
[3] = system: Pancreatic Ductal Adenocarcinoma #03; test: Evaluation against early stage Pancreatic Ductal Adenocarcinoma #03, BD1 female mice (Table 2); settings: Cage 2; IV; QD3–6, 10; total 300 mg/kg
[4] = IV; total dose; cited from earlier work
[5] = system: Mammary Adenocarcinoma 17/ADR; test: Evaluation against early stage Mammary Adenocarcinoma 17/ADR, C3H/He females (Table 3); assay type: in vivo; settings: Cage 4; IV; 56 mg/kg/injection QD-1–5 and 10; total 336 mg/kg
[6] = Cage 5, 57 mg/kg/injection QD 3–9, total 399 mg/kg
[7] = Cage 6, 38 mg/kg/injection QD 3–9, total 266 mg/kg

CC(Oc1ccc(Oc2cnc3ccc(Cl)cc3n2)cc1)C(=O)O (racemic) [XK469, reference compound]
% Body Wt Loss at Nadir [1, 6]: −6.7% | % T/C mass [1, 6]: 4.1% | Activity Rating [1, 6]: ++ (1.3–1.9) | Day of Nadir [1, 6]: 8 days | Drug Deaths [1, 6]: 0/5 | Growth Delay [1, 6]: 11.5 days | Log Kill [1, 6]: 1.7 | Median Tumor Mass on Day 14 (Range) [1, 6]: 63 | Tumor Free day-37 [1, 6]: 0/5 | % Body Wt Loss at Nadir [1, 7]: −6.7% | % T/C mass [1, 7]: 8.3% | Activity Rating [1, 7]: ++ (1.3–1.9) | Day of Nadir [1, 7]: 5 days | Drug Deaths [1, 7]: 0/5 | Growth Delay [1, 7]: 9.5 days | Log Kill [1, 7]: 1.4 | Median Tumor Mass on Day 14 (Range) [1, 7]: 126 | Tumor Free day-37 [1, 7]: 0/5 | Day of Wt. Loss Nadir [2]: 8 days | Drug Deaths (days of death) [2]: no drug deaths and 0/5 | Log Kill [2]: 1.43 and 1.4 | Mean Body Wt. Loss in g/mouse [2]: −3.6 g/mouse | Median tumor burden in mg on day 14 (range) [2]: 189 mg | Percent Body Wt. Loss [2]: −15.5% | T-C [2]: 9 days | T/C % [2]: 11% | Time to 1000 mg days (range) [2]: 20 days | Tumor Free on day 21 [2]: 0/5 | day of body weight recovery [2]: 13 days | Activity Rating [3]: ++++ (Highly active >2.8) | Day of Wt. Loss Nadir [3]: 8 days | Drug Deaths (day of death) [3]: 0/5 | Growth Delay [3]: 28.1 days | Log Cell Kill [3]: 3.3 | Mean Body Wt. Loss (g/mouse) [3]: −3.2 g/mouse | Median Tumor Burden in mg on d18 (Range) [3]: 64 mg | T/C % [3]: 4% | Time in days to 1000 mg (range) [3]: 41.1 days | Tumor Free on d 154 [3]: 1/5 | day of full body weight recovery [3]: ~12 days | MTD (historical) [4]: 450 to 480 mg/kg | % Body Wt Loss at Nadir [5]: −7.1% | % T/C mass [5]: 9% | Activity Rating [5]: ++++ (Highly active >2.8) | Day of Nadir [5]: 8 days | Drug Deaths [5]: 0/5 | Growth Delay [5]: 15.5 days | Log Kill [5]: 4.2 | Median Tumor Mass on Day 9 (Range) [5]: 108 | Tumor Free day-21 [5]: 0/5
